Data set [1] deals with HEK293 cells. Description: Cell toxicity study (CellTiter-Glo), HEK293. It counts as cell-based. On the procedure:
Test compounds were solubilized in 100% DMSO and added to polypropylene 384 well plates (Greiner cat# 781280). 1,250 of BT474 or HEK293 cells were plated in 384-well plates in 8 µL of serum-free media (HybriCare for BT474, EMEM for HEK293). Test compounds and pharmacological assay control (lapatinib) were prepared as 10-point, 1:3 serial dilutions starting at 10 mM, then added to the cells using the pin tool mounted on Biomek NX^P. Plates were incubated for 72 h at 37 °C, 5% CO2 and 95% RH. After incubation, 8 µL of CellTiter-Glo® (Promega cat# G7570) was added to each well, and incubated for 15 min at room temperature. Luminescence was recorded using a Biotek Synergy H4 multimode microplate reader. Viability was expressed as a percentage relative to wells containing media only (0%) and wells containing cells treated with DMSO only (100%). Three parameters were calculated on a per-plate basis: (a) the signal-to-background ratio (S/B); (b) the coefficient for variation [CV; CV = (standard deviation/mean) × 100)] for all compound test wells; and (c) the Z′-factor. IC50 values were calculated by fitting normalized data to sigmoidal log vs. response equation utilizing non-linear regression analysis from GraphPad Prizm 6.
In general terms: In ATP-based viability assays light output follows the ATP content of the culture.

Data set [2] has as its system CCL2-induced migration of peripheral blood mononuclear cells (PBMC). Description: PBMC migration assay. It counts as cell-based. The following applies: statistical significance not reached. On the procedure: For PBMC or primary human neutrophil chemotaxis assays, transwells with 8 or 5 µm pores were filled with 100 µL of cell suspension (1 × 10^6 cells in 100 µL DMEM + 0.2% BSA). Lower wells were filled with stimulus solution (3 nM CCL2 or 10 µg/mL CXCL8 (IL8) in assay buffer (RPMI + 0.2% BSA). After incubation of PBMCs for 2 h or neutrophils for 45 min, migrated cells were quantified in the lower well. For inhibitor studies, cells were pre-incubated in migration medium for 30 min and subsequently subjected to the migration experiment. Migrated neutrophils or PBMCs were quantified by measurement of endogenous glucuronidase activity as described.

Data set [3] addresses T1, ADAM10 (Homo sapiens, UniProt O14672).
T1 construct: purchased R&D Systems 936-AD
T1 sequence (O14672 214-748): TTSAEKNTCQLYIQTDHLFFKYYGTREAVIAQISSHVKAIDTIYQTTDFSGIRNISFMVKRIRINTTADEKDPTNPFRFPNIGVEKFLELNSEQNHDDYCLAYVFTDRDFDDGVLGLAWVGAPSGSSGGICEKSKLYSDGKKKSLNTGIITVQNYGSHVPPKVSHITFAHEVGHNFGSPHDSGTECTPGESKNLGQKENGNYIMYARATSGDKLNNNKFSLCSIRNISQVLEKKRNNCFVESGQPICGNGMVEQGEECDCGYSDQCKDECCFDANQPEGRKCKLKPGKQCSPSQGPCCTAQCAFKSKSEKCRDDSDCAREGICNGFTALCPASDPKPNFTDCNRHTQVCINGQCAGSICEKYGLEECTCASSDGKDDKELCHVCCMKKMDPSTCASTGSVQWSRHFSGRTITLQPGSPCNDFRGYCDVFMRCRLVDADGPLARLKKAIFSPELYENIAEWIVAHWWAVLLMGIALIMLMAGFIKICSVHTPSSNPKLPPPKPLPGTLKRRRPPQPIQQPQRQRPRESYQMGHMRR
In words: ADAM10 non-glycosylated substrate assay. The following applies: non-glycosylated substrate. Format: biochemical. From the text: Additionally, we synthesized a non-glycosylated version, E(Edans)-[…]-K(Dabcyl), to be used as a control in the follow-up studies.

Data set [4] addresses T2, ADAM17 (Homo sapiens, UniProt P78536).
T2 construct: purchased R&D Systems 930-ADB
In words: HPLC-based ADAM17 assay using glycosylated substrate. Format: biochemical. On the procedure:
Both assays followed the same general protocol. 30 µL of 3x enzyme solution (30 nM) in assay buffer (10 mM Hepes, 0.001% Brij-35, pH 7.5) were added to solid bottom black 384 plates. Next, 30 µL of 3x test compounds and pharmacological controls were added to corresponding wells. After 30 min incubation at RT, the reactions were started by addition of 30 µL of 3x solution of glycosylated substrate (30 µM). Reactions were incubated at RT for 2 h and then quenched with 10 µL of 500 µM EDTA. Analytical RP-HPLC was performed on a 1260 Infinity Agilent Technologies liquid chromatograph equipped with an Agilent Poroshell 120 column. Eluents were 0.1% TFA in water (A) and 0.1% TFA in acetonitrile (B). The elution gradient was 0–98% B in 15 min with a flow rate of 1.0 mL/min. Detection was at λ = 214, 360, and 460 nm.

Data set [5] has as its target T1, ADAM10. In words: ADAM10 glycosylated substrate uHTS/HTS assay. Format: biochemical. The method, then:
To enable uHTS both ADAM10 and ADAM17 glycosylated substrate[13] (Fig. 1A) assays were miniaturized to 1536 well plate format. The workflow of the assays in 384 well plate format was recaptured in 1536 well plate format and assay volume was scaled down to 5 µL.
Both assays followed the same general protocol. […] Reactions were incubated at RT for 2 h, after which the fluorescence was measured using Perkin Elmer Viewlux multimode microplate imager (λexcitation = 360 nm, λemission = 460 nm). Final concentration of test compounds in assays was 7.0 µM.
The miniaturized 1536-well plate format ADAM10 and ADAM17 assays were used to screen a collection of ≈370,000 compounds (MLSMR library, provided by the NIH) on the automated Kalypsys/GNF platform at the Scripps Research Institute Molecular Screening Center (SRIMSC, Jupiter, FL. More details at http://hts.florida.scripps.edu/). […] Both uHTS campaigns were run separately but in a similar manner. Briefly, the first step was the primary screen of all MLSMR’s test compounds as singlicate against the ADAM10 or ADAM17 target at a final concentration of 7.0 μM. Next, compounds selected as primary hits were cherry-picked and retested in triplicate against the primary screen target and its anti-target (ADAM17 for the ADAM10 screening effort, and vice-versa) at the same final concentration of 7.0 μM. […] All data generated during this effort were uploaded to the SRIMSC’s institutional screening database (Assay Explorer, Symyx). Sample to background (S/B) ratios, as well as Z and Z′ values were calculated on a per-plate basis as described before. Curve fitting and resulting IC50 determinations were performed as previously reported.

Where only a bound is given, the exact number is not on record here.

The results in this text go back to paper PMC5431342, “Discovery of an enzyme and substrate selective inhibitor of ADAM10 using an exosite-binding glycosylated substrate” (Scientific Reports, 2016).

For orientation: IC50 means the concentration at which inhibition is half-maximal. Low values mean higher potency, high ones lower potency.

T2 sequence (P78536 215-824): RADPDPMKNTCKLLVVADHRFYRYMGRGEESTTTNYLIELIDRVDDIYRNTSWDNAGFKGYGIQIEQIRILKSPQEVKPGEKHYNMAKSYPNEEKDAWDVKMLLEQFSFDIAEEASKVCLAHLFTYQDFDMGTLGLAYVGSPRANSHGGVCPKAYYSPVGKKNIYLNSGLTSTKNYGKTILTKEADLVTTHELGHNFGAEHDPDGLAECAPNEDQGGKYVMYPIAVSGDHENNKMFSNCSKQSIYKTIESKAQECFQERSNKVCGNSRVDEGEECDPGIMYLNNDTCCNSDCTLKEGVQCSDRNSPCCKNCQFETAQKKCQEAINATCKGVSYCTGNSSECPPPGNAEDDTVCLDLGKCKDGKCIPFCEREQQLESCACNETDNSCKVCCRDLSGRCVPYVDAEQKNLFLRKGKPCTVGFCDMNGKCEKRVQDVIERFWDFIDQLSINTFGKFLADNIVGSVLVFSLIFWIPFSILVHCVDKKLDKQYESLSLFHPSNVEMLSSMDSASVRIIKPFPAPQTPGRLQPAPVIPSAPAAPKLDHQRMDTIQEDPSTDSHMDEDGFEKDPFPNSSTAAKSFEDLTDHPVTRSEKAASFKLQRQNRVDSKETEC

As for `COc1cccc(C(=O)NNC(=O)C(=O)Nc2ccc(C)c(Cl)c2)c1` [CID 3117694], the “effect on HEK293 cell viability” value in data set [1] (100 µM) is reported as “moderate effect”. In data set [1] (72 h), the “effect on viability of HEK293 cells” value is on record as “did not affect viability”. The “inhibition of PBMC migration” value in data set [2] is on record as “approximately 50%”. For the same compound, the half-inhibitory concentration (IC50) in data set [3] was more than 100000 nM; in data set [5] (1 h pre-incubation) it was 700 ± 500 nM; in data set [5] (4 h pre-incubation), 400 ± 300 nM; in data set [5] (no pre-incubation with ADAM10), 40000 ± 5000 nM; in data set [5] (original uHTS dose response, 10-point 1:3 dilutions starting at 70 µM), 6500 nM; in data set [5] (reordered powder, HTS assay, glycosylated substrate, 0.5 h pre-incubation) it was 1100 nM. For the same compound, the “inhibition of ADAM17-mediated hydrolysis of glycosylated substrate” value in data set [4] is “not appreciably inhibited”. Further, the “difference in potency, 0.5 hour pre-incubation versus no incubation” value in data set [5] is listed as “approximately 40 fold”. In data set [5] (IC50 5.3 nM versus 1.1 µM), the “difference in in vitro potency for ADAM10, GI 254023X versus CID 3117694” value is approximately 200 fold. Besides, in data set [5] (no pre-incubation with ADAM10), the inhibition profile result is “partial inhibition profile”.
